{
  "source": "ChEMBL document CHEMBL1133309",
  "about": "“Computational binding studies of human pp60c-src SH2 domain with a series of nonpeptide, phosphophenyl-containing ligands” (Bioorg Med Chem Lett, 2000)",
  "data": [
    {"target": "Proto-oncogene tyrosine-protein kinase Src (Homo sapiens, UniProt P12931)", "sequence (P12931 2-536 limits assumed)": "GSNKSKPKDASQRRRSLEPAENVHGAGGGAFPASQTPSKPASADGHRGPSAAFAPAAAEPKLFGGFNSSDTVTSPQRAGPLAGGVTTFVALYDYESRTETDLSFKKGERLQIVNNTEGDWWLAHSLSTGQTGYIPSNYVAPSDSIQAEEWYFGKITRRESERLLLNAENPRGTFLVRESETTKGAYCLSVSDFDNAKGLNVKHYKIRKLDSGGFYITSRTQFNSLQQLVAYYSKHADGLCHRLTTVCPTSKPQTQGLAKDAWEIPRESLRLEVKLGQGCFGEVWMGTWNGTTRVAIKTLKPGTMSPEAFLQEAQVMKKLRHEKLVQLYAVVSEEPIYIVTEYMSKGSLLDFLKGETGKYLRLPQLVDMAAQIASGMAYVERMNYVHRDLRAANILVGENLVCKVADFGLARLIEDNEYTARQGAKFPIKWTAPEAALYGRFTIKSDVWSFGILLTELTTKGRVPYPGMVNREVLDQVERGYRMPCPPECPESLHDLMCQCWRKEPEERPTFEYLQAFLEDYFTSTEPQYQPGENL", "test": "Binding affinity for Human pp60c-src SH2 domain", "units": {"IC50": "µM"}, "values": [
      {"smiles": "CC(=O)c1cc(CNC(=O)c2ccc(OP(=O)(O)O)cc2)ccc1OCC1CCCCC1", "IC50": 69},
      {"smiles": "CNC(=O)c1cc(CNC(=O)c2ccc(OP(=O)(O)O)cc2)ccc1OCC1CCCCC1", "IC50": 30},
      {"smiles": "O=C(NCc1ccc(OCC2CCCCC2)cc1)c1ccc(OP(=O)(O)O)cc1", "IC50": "> 100"}
    ]}
  ]
}
